Results as given in BigSolDB 2.1.

C[C@H]1[C@H](C)CC[C@]2(C(=O)O)CC[C@]3(C)C(=CC[C@@H]4[C@@]5(C)CC[C@H](O)C(C)(C)[C@@H]5CC[C@]43C)[C@H]12
solubility (mole fraction)
Details	278.2 K	283.2 K	288.2 K	293.2 K	298.2 K	303.2 K	308.2 K	313.2 K	318.2 K
in MIBK	0.00094	0.00104	0.00106	0.00109	0.00127	0.00128	0.0015	0.00169	0.00184
in MTBE	0.00167	0.00175	0.0021	0.00248	0.00288	0.00305	0.00311	0.00315	0.00338
in n-butanol	0.00153	0.00168	0.00226	0.00266	0.00334	0.00387	0.00411	0.00466	0.00504
